Legend:
[1] = test system: human HCT116; assay: Bulk telomere length, Southern blot, HCT116; type: cell-based; conditions: HCT116 cells
[2] = test system: ATR kinase substrate Chk1; assay: Western blot of ATR kinase substrate Chk1 phosphorylation; type: cell-based, mouse; conditions: cells pretreated, then exposed to camptothecin (CPT)
From the text: To probe the role of ATM, the ADDIT assay was used in cells treated with the ATM specific inhibitor KU55933 (as described in Hickson et al., 2004, Cancer Research 64, 9152-9159) or with siRNA to ATM. To confirm the inhibition of ATM, the phosphorylation level was examined of the ATM substrate Kap1 and, as a control, an ATR kinase substrate Chk1 by western blot. Cultured cells were pretreated with KU55933, siA™ or DMSO control and then exposed to camptothecin (CPT), a DNA damaging agent.
To detect phospho-proteins, 1× lysis buffer made of final concentration of 1×RIPA™ (Cell Signaling, #98016S), 1× protease inhibitor cocktail, 1× PhosSTOP™ (Roche, 4906845001) was added directly to cells on the dish after washing with PBS. Protein concentration was measured with a BCA protein assay kit (Thermo, #23227). Typically 10 μg of protein from each sample was applied to SDS-PAGE gels (Biorad, #456-1084) and transferred to nitrocellulose membranes in transfer buffer. […] Band intensities were quantified using the Odyssey™ software (LI-COR) and normalized to Actin levels. […]

[3] = test system: SL13 cells; assay: Telomere Southern blot after lentiviral overexpression of mTR and mTERT; type: cell-based, mouse; conditions: SL13 cells transduced with lentivirus expressing mTR and mTERT; day 6
[4] = test system: tankyrases; conditions: in vitro assays; cited from earlier work
[5] = test system: PARP1; assay: Western blot of PARylation with antibody against poly ADP-ribose; type: cell-based; conditions: antibody directed against poly ADP-ribose
Procedure: To examine activation of ATM kinase pathway in response to PARP1 inhibition the phosphorylation levels of KAP1, in response to the PARP1 inhibitor, Olaparib was measured.
To detect phospho-proteins, 1× lysis buffer made of final concentration of 1×RIPA™ (Cell Signaling, #98016S), 1× protease inhibitor cocktail, 1× PhosSTOP™ (Roche, 4906845001) was added directly to cells on the dish after washing with PBS. Protein concentration was measured with a BCA protein assay kit (Thermo, #23227). Typically 10 μg of protein from each sample was applied to SDS-PAGE gels (Biorad, #456-1084) and transferred to nitrocellulose membranes in transfer buffer. After blocking with the Odyssey™ blocking buffer (LI-COR, #927-40000), membranes were incubated at 4° C. overnight or 1 hr at RT with the following primary antibodies: anti-phospho-Kap1 (Bethyl Lab, #A300-767A); anti-phospho-CHK1 (Cell Signaling, #2348S); anti-phospho-ATM (Millipore, #05-740); anti-HA (Santa Cruz, #sc-7392); anti-Actin (Santa Cruz, #sc-1616); anti-PAR (Trevigen, #4335-MC-100). The following day, blots are washed with 1×PBS− T for 3×15 minutes, and then incubated with secondary antibodies conjugated to near-infrared dyes (IRDye® 680 anti-goat, 800 anti-rabbit, 800 anti-mouse, LI-COR). […] Band intensities were quantified using the Odyssey™ software (LI-COR) and normalized to Actin levels. […]

SMILES	bulk telomere length [1]	Chk1-S345 phosphorylation [2]	telomere elongation on overexpression of telomerase (Southern blot) [3]	effect on tankyrases [4]	PARylation [5]
O=c1cc(-c2cccc3c2Sc2ccccc2S3)oc(N2CCOCC2)c1 [KU55933]	telomere shortening	not Chk1 phosphorylation	blocked this telomere elongation	–	–
O=C(c1cc(Cc2n[nH]c(=O)c3ccccc23)ccc1F)N1CCN(C(=O)C2CC2)CC1 [Olaparib]	–	–	–	little effect on tankyrases	inhibited PARylation

Source: patent US20180110777A1, “METHOD FOR REGULATION OF TELOMERE LENGTH” (The Johns Hopkins University, priority 2015, published 2018)
